Key:
A2780 cells [1] = experiment: Fluorescence microscopy cell binding of GnRHa-ICG / ICG; type: cell-based, human; conditions: 60 min, 37°C, confocal microscopy
Procedure: (§1) The cells were placed in an 8-well chamber slide (Ibidi) and grown to ~60% confluence. A2780, CAOV-3, ES-2, and HeyA8 cells were incubated with 100 μmol/L GnRHa-FITC, and A2780, OSE, and H1299 cells were incubated with 20 μmol/L GnRHa-ICG or ICG (Sigma-Aldrich) for 60 min at 37°C. After incubation, the cells were washed with PBS, fixed in 4% paraformaldehyde, labeled with WGA Alexa Fluor 594 conjugate or WGA Alexa Fluor 488 conjugate (Invitrogen), and mounted with DAPI. These samples were analyzed using TCS SP5 confocal microscopy (Leica). For quantitative analysis, the mean fluorescence intensity was calculated using ImageJ software (version 1.50 g).

OSE cells = experiment: as above; type: cell-based, human; conditions: 60 min, 37°C, confocal microscopy
Procedure: as §1

[2] = system: A2780 peritoneal metastases of ovarian cancer; type: in vivo, Balb/c nude mice
Source text: The xenograft model for metastatic ovarian cancer was previously described ([18]). Female Balb/c nude mice (5–6 weeks old) were intraperitoneally injected with 1 × 10^7 A2780 cells. Tumors were allowed to grow for 2–3 weeks. The Institutional Animal Care and Use Committee of Fudan University approved all protocols presented in these studies.
For ex vivo GnRHa-ICG and ICG (0, 1, 10, and 20 μmol/L) imaging, fluorescence signals were taken using the IVIS Lumina K imaging system (PerkinElmer) and the clinically used Fluorescence Navigation system (the FloNavi, Optomedic Technique Inc., Guangdong, China). For intraperitoneal metastasis imaging, 0.72 μmol/kg of GnRHa-ICG or ICG was injected intraperitoneally in mice. Mice were sacrificed at the indicated times (n = 3 per group), and the abdominal cavities were exposed. Fluorescence images were obtained using the IVIS Lumina K imaging system (PerkinElmer) with a 780 nm excitation filter and an 845 nm emission filter. For ex vivo imaging, xenografts and organs were immediately dissected and analyzed after sacrifice.
Fluorescence signals were quantified as the average radiant efficiency ([p/s/cm^2/sr]/[μW/cm^2]) using the Living Image software. The fluorescence intensity was measured by drawing a region of interest (ROI) around the area. The tumor-to-background ratio (TBR) was calculated as the average fluorescence intensity of the tumor divided by that of the skeletal muscle or intestine.

[3] = system: A2780 and OSE cells (GnRHR-positive); experiment: Flow cytometry blocking experiment with unlabeled GnRHa peptide; type: cell-based, human; conditions: pretreated with 100 μmol/L GnRHa peptide 10 min, then 2 μmol/L GnRHa-ICG 30 min, 37°C, triplicate
Procedure: A2780 and OSE cells were placed in 6-well plates, grown to ~70% confluence, and then incubated with GnRHa-FITC (20 μmol/L) or GnRHa-ICG/ICG (10 μmol/L) for 30 min at 37°C. For the blocking experiments, cells were pretreated with 100 μmol/L GnRHa peptide for 10 min and then incubated with 2 μmol/L GnRHa-ICG for 30 min at 37°C. Samples were measured on a CytoFLEX flow cytometer (Beckman Coulter) or a FACSAria flow cytometer (BD Biosciences). All samples were examined in triplicate. Data were analyzed using FlowJo software (version X 10.0.7).

A2780 cells [4] = experiment: Cell viability assay (Cell Counting Kit-8); type: cell-based, human; conditions: 0, 1, 10, 100 μmol/L, 48 h exposure, CCK-8, 4 sub-wells
Procedure: A2780 cells were seeded in 96-well plate and grown to ~40% confluence. Cells were incubated with GnRHa-ICG at different concentrations: 0, 1, 10, and 100 μmol/L. Each group had 4 sub-wells. After exposure for 48 h, cell viabilities were assessed by Cell Counting Kit-8 assay (Dojindo). The absorbance at 450 nm (reference wavelength: 630 nm) was measured with a microplate reader.

Balb/c nude mice = experiment: In vivo toxicity test; conditions: 1.5 mg/kg intraperitoneal, n = 4
Procedure: The toxicity of GnRHa-ICG was determined in Balb/c nude mice (n = 4). Two groups received intraperitoneal injections of 1.5 mg/kg GnRHa-ICG and were followed for 2 and 96 h. The control group received vehicle alone. Blood draws were done to assess alanine transaminase (ALT), aspartate transaminase (AST), blood urea nitrogen (BUN), creatinine (CREA), white blood cells (WBC), and red blood cells (RBC). Tissues of the heart, lung, liver, spleen and kidney were harvested for HE staining.

[5] = 2 h post administration, 0.72 μmol/kg intraperitoneal, IVIS Lumina K, ex 780/em 845 nm, mean ± SD, n = 3 per group
[6] = 20 μmol/L, mean fluorescence intensity by ImageJ

Compound	fluorescence signal, times lower than with incubation of GnRHa-ICG (A2780 cells [1]; 20 μM each) [times]	fluorescence signal, times lower than with incubation of GnRHa-ICG (OSE cells; 20 μM each) [times]	tumor-to-intestine ratio [2, 5]	tumor-to-muscle ratio [2, 5]	course of tumor fluorescence intensity ([2]; mouse, in vivo)	fluorescence in control (normal, non-tumor) mice ([2]; mouse, in vivo, ip)	fluorescence intensity, fold higher than in H1299 cells (GnRHR-negative) (A2780 cells [1]; [6]) [fold]	fluorescence intensity, fold higher than in H1299 cells (GnRHR-negative) (OSE cells; [6]) [fold]	effect of competition with unlabeled GnRHa on fluorescence intensity [3]	cell viability after exposure (tumorigenic potential) (A2780 cells [4])	course of tumor-to-background ratio (TBR) over time ([2]; between 2 and 48 h, intraperitoneal)	ex vivo imaging of the brain (binding to hypothalamic GnRHR) ([2]; mouse, in vivo)	fluorescence in benign retroperitoneal lymph nodes versus tumor ([2]; mouse, in vivo)	time at which fluorescence signal of A2780 xenografts peaked in intensity ([2]; mouse, in vivo, ip) [h]	time for which tumor fluorescence intensities were maintained ([2]; mouse, in vivo, ip)	time of highest fluorescence density in the liver ([2]; mouse, in vivo, ip) [h]	ALT, AST, CREA, WBC and RBC, control versus test groups (Balb/c nude mice; 2 and 96 h)	BUN (Balb/c nude mice; 96 h after injection)	histological observation of main organs (heart, lung, liver, spleen, kidney; HE staining) (Balb/c nude mice)
CC1(C)C(/C=C/C=C/C=C/C=C2\N(CCCCS(=O)(=O)O)c3ccc4ccccc4c3C2(C)C)=[N+](CCCCS(=O)(=O)[O-])c2ccc3ccccc3c21 [ICG, Indocyanine green, reference compound]	2.61	2.25	0.57 ± 0.06	4.60 ± 0.50	decreased quickly within 48 h	high fluorescence signals	–	–	–	–	–	–	–	–	–	–	–	–	–
D-2-Nal-D-4-Cl-Phe-D-3-Pal-Ser-Tyr-D-Cit-Leu-Arg-Pro-D-Ala-NH2 [GnRHa-ICG]	–	–	–	–	–	did not show fluorescence signals	1.56	1.34	partial reduction in fluorescence intensity	does not increase cell viability	stable	did not show fluorescence signals	fewer fluorescence signals	2	up to 48 h	24	no significant difference	slight decrease	did not present any obvious damage

— paper PMC7059204, “Gonadotropin-Releasing Hormone Receptor-Targeted Near-Infrared Fluorescence Probe for Specific Recognition and Localization of Peritoneal Metastases of Ovarian Cancer” (Frontiers in Oncology, 2020)
